Experimental findings from PubChem BioAssay AID651788 (The Scripps Research Institute Molecular Screening Center, 2012) are described below.

In the experiment the target is Nuclear receptor coactivator 3 (Homo sapiens) (UniProt Q9Y6Q9). Kind of experiment: inhibition of GAL4-SRC3 reporter transcription – cell-based, HEK293, GAL4-SRC3 luciferase, powder samples, late-stage follow-up (AID 651788). As to conditions: luminescence.

The source made the active and inactive calls.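 How the source made its calls: active means IC50 for SRC3 coactivator inhibition, the dose giving half inhibition, at or below 10 µM; inactive means IC50 above 10 µM.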

As a reminder, the IC50 is the concentration needed to halve the response being measured.

Nuclear receptor coactivator 3 (Homo sapiens), sequence (Q9Y6Q9 whole entry, looked up, the tested form may be a part): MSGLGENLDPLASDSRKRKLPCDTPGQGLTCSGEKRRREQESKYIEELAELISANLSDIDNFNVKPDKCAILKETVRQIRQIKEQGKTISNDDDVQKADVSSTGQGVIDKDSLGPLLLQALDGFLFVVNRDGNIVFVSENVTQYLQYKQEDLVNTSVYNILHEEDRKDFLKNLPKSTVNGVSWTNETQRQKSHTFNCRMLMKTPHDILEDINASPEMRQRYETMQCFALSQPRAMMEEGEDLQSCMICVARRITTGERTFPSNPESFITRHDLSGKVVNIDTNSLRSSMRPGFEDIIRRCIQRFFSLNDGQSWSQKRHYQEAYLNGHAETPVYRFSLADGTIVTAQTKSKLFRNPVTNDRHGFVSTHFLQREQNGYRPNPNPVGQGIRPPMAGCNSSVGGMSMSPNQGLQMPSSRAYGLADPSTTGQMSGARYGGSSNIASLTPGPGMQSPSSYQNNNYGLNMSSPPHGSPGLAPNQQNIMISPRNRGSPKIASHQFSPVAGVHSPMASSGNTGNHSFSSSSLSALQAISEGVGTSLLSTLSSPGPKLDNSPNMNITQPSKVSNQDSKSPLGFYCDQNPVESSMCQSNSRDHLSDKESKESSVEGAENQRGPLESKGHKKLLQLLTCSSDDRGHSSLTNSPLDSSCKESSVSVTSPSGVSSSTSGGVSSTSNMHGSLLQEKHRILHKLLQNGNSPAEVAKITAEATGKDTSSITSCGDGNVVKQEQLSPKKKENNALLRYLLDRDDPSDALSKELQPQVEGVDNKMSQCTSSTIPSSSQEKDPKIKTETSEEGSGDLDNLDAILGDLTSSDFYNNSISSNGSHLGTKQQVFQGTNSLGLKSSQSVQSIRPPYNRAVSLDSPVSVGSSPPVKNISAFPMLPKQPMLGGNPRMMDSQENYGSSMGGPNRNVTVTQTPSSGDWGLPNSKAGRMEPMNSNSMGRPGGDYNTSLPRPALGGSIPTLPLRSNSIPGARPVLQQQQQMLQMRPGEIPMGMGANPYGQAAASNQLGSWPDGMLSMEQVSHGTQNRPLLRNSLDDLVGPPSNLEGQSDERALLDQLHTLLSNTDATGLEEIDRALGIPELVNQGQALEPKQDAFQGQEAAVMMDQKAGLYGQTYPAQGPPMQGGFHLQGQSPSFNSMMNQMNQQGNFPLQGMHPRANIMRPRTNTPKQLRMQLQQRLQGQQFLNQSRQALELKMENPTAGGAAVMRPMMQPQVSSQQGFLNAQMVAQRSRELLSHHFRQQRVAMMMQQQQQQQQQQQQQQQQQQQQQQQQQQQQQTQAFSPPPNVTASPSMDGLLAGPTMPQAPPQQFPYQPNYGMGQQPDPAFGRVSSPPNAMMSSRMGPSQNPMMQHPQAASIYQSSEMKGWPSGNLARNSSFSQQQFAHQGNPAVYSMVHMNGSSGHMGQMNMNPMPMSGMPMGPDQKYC

As to `CC(C)(C)c1ccc(-c2noc(CCC(=O)Nc3cccnc3)n2)cc1`, the IC50 is > 12 µM (inactive). The result for `CCCNC(=O)c1nnsc1S(=O)(=O)c1ccc(Cl)cc1` reads 3.96 µM; that for `Cc1ccc(OCC(=O)c2cc(C)n(-c3ccccc3)c2C)c([N+](=O)[O-])n1`, “inactive”.

Turning to `CN1C(=O)C2(C(C#N)=C(N)N(c3cc(Cl)cc(Cl)c3)C3=C2C(=O)CC(C)(C)C3)c2ccccc21` (stereo not drawn), the half-inhibitory concentration (IC50) is 4.44 µM. `OCCN1CCN(C(=S)c2ccc(-c3ccccc3)cc2)CC1`: the half-inhibitory concentration (IC50) was 4.97 µM. As to `O=C(COC(=O)c1ccc[nH]c1=O)Nc1ccc(N2CCCCC2)cc1`, the IC50 is 8.32 µM. With `O=C(Nc1ccccc1Oc1ccccc1)c1cc([N+](=O)[O-])ccc1Cl`, the IC50 is 3.1 µM. Consider `CN1C(=O)C2(C(C#N)=C(N)N(c3cc(Cl)cc(Cl)c3)C3=C2C(=O)CCC3)c2ccccc21` (stereo not drawn), for which the IC50 was 5.74 µM.
